Experimental data from patent US11518981B2, “Methods of enhancing engraftment activity of hematopoietic stem cells” (CHILDREN'S HOSPITAL MEDICAL CENTER, priority 2017, dated 2022).

Assays:
[1] = test system: CD34^+38^−90^+ HSCs; experiment: cell cycle analysis (Ki-67 / Hoechst) of HSCs; type: cell-based, human; conditions: 72 h, RV transduced cycling HSCs; MK-8776 1 μM, PV1019 1 μM, PGE2 10 μM, Birb 796 600 nM
[2] = test system: human CD34^+ cells; experiment: GFP marking in human grafts of NSG mice; type: in vivo; conditions: limiting dilution transplant; also long-termed secondary human grafts
Source text: NOD.Cg-Prkdcscid Il2rgtm1Wjl/SzJ (NSG) mice were purchased from The Jackson Laboratory (Bar Harbor, Me.). All animals were bred and maintained in a specific pathogen-free environment and all experiments were approved by the Institutional Animal Care and Use (IACUC) Committee. Male and female NSG mice aged 8 to 14 weeks old were fed doxycycline chow (TestDiet; Modified Prolab RMH-1500 with 0.0625% doxycycline) a week prior to, during and for 2 weeks post irradiation. Human engraftment was analyzed in bone marrow (BM), via BM aspirates performed at 6 and 12 weeks from left and right femurs. After sacrifice at 24 weeks, marrow from all of the primary mice (1 T) was harvested. Peripheral blood analysis was also performed in some experiments. Secondary transplants (2 T) were performed after mouse CD45^+ cells were depleted from BM harvested from each 1 T mouse separately, using Biotin Rat Anti-Mouse CD45 (BD Biosciences 553078) and Streptavidin Particles Plus-DM (BD Biosciences 557812) and injected into one irradiated (280 cGy) secondary NSG mouse. […] Total ROS and mitochondrial specific ROS were detected using 10 μM CM-H2DCFDA (ThermoFisher Scientific C6827) and 5 μM MITOSOXTM Red (Red Mitochondrial Superoxide Indicator) (ThermoFisher Scientific M36008) respectively, following manufacturer's instructions.

[3] = test system: HIF-1α; experiment: HIF-1α staining in HSCs (immunofluorescence, flow cytometry); type: cell-based, human; conditions: 72 h, RV transduced CD34^+38^−90^+ cells
Source text: FACS sorted CD34+38−90+ cells were fixed in 2% paraformaldehyde and permeabilized using 0.1% TRITON™ X-100 (Alkaryl polyether alcohol, Sigma-Aldrich). Cells were then stained with primary antibodies Anti-phospho-H2AX (Ser 139) (Millipore, 05-636), anti-53BP1 antibody (Novus Biologicals, NB100-904), or anti-HIF-1α (ab103063). For secondary antibodies, Alexa Fluor 594 conjugated Goat anti-Rabbit IgG (H+L) (A-11037) or, ALEXA FLUOR® 647 conjugated Goat anti-Rabbit IgG (H+L) (A-21245) (both from ThermoFisher Scientific) were used for 1 hour at 37° C. Cells were counterstained and mounted with […]® antifade mounting medium with DAPI (H-1200 Vector Laboratories). Images were obtained using a Nikon 90i upright microscope.

[4] = test system: γH2AX; experiment: DNA damage response (γH2AX, 53BP1) by immunofluorescence and flow cytometry; type: cell-based, human; conditions: 72 h, RV transduced cycling HSCs
Protocol: For EdU incorporation assay, cells were incubated with 10 μM EdU throughout the culture period and the CLICK-IT® Plus EdU Pacific Blue Flow Cytometry Assay Kit (ThermoFisher Scientific C10636) was used for staining. […] Samples were run through a FACSCANTOTM, FORTESSATM, or LSR 2 flow cytometers (BD Biosciences), and the data was analyzed by […] software (BD). […] II cell sorter. FACS sorted CD34+38-90+ cells were fixed in 2% paraformaldehyde and permeabilized using 0.1% […] polyether alcohol, Sigma-Aldrich). […] Cells were counterstained and mounted with […]® antifade mounting medium with DAPI (H-1200 Vector Laboratories). Images were obtained using a Nikon 90i upright microscope.

[5] = test system: human MPB derived CD34^+ cells; experiment: multi-lineage reconstitution (myeloid / B-lymphoid) in bone marrow of NSG mice; type: in vivo; conditions: limiting dilution transplant, 42 h LV; 6 mo post 1 T
Source text: NOD.Cg-Prkdcscid Il2rgtm1Wjl/SzJ (NSG) mice were purchased from The Jackson Laboratory (Bar Harbor, Me.). All animals were bred and maintained in a specific pathogen-free environment and all experiments were approved by the Institutional Animal Care and Use (IACUC) Committee. Male and female NSG mice aged 8 to 14 weeks old were fed doxycycline chow (TestDiet; Modified Prolab RMH-1500 with 0.0625% doxycycline) a week prior to, during and for 2 weeks post irradiation. Human engraftment was analyzed in bone marrow (BM), via BM aspirates performed at 6 and 12 weeks from left and right femurs. After sacrifice at 24 weeks, marrow from all of the primary mice (1 T) was harvested. Peripheral blood analysis was also performed in some experiments. Secondary transplants (2 T) were performed after mouse CD45^+ cells were depleted from BM harvested from each 1 T mouse separately, using Biotin Rat Anti-Mouse CD45 (BD Biosciences 553078) and Streptavidin Particles Plus-DM (BD Biosciences 557812) and injected into one irradiated (280 cGy) secondary NSG mouse. For calculating competitive repopulating units (CRU) from limiting dilution transplantation, the L-CALC^TM software (Stem Cell Technologies) was used. All of the mice used for this study were randomly assigned to a treatment group. No animals were excluded from the analysis. PE-Cyanine 7 or APC-EFLUOR® 780, APC- or PE-conjugated antibodies directed to human CD34 (BD Biosciences 560710 or 555824), CD38 (eBiosciences, San Diego, Calif. 47-0389-42), CD90 (BioLegend 328120), CD45RA (eBiosciences 17-0458-42), CD49f (BD Biosciences 555736), CD45 (BD 55485 or Biolegend 304026), CD33 (eBiosciences 25-0338-42), CD19 (BD Biosciences 557791), or CD3 (BD Biosciences 555340). Cells ( 5×10^5-1×10^6) were used to label with antibodies as per manufacturer instructions with the appropriate isotype controls. For phospho-flow, primary antibodies phospho-[…]), phospho-p44/42 MAPK (ERK 1⁄2) […]; […]), and phospho-JNK […] PE conjugate; […]) (all from Cell Signaling) were used for staining overnight followed by wash and secondary antibody stain including Goat anti-Rabbit IgG (H+L) or Goat anti-Rabbit IgG (H+L) or Pacific Blue (P-10994) antibody. Apoptosis assay was performed using PE Annexin V Apoptosis Detection Kit (BD Biosciences 559763) according to the manufacturer's instructions. Total ROS and mitochondrial specific ROS were detected using 10 μM CM-H2DCFDA (ThermoFisher Scientific C6827) and 5 μM MITOSOXTM Red (Red Mitochondrial Superoxide Indicator) (ThermoFisher Scientific M36008) respectively, following manufacturer's instructions.

Row | Structure (SMILES) | transduced HSCs accumulated in the G2M phase [1] | GFP marking [2] | HIF-1α levels in cycling transduced HSCs [3] | γH2AX levels in the transduced HSCs [4] | lineage skewing [5]
1 | Cn1cc(-c2cnn3c(N)c(Br)c([C@@H]4CCCNC4)nc23)cn1 [Chk1i] | Fewer transduced-HSCs were found to accumulate in the G2M phase with Chk1i (albeit not statistically significant) | – | – | – | –
2 | CCCCC(C)(C)[C@H](O)/C=C/[C@H]1[C@H](O)CC(=O)[C@@H]1C/C=C\CCCC(=O)O [PGE2, 16,16 dimethyl Prostaglandin E2] | tended to reduce | did not have any effect | could be stabilized | no effect | sufficient to restore the lineage skewing
